This is an account of results in patent US20040063790A1, “Methods for inhibition of angiogenesis” (The Scripps Research Institute, priority 1996, published 2004).

In assay [1] the test system is UCLAP-3 tumors. Description: Tumor regression in the CAM assay, UCLAP-3. The assay is classed as in vivo, chick. To be noted: 100 μg intravenously 18 hours post-implantation; FIG. 15. As to the method:
As described in Example 5, in addition to visually assessing the effect of anti-αvβ3 antagonists on growth factor or tumor induced angiogenesis, the effect of the antagonists was also assessed by measuring any changes to the tumor mass following exposure. For this analysis, the tumor-induced angiogenesis CAM assay system was prepared as described in Example 4C. At the end of the 7 day incubation period, the resulting tumors were resected from the CAMs and trimmed free of any residual CAM tissue, washed with 1 ml of phosphate buffer saline and wet weights were determined for each tumor.
To further assess the effects of αvβ3 antagonists on tumor growth and survival, fragments of human melanoma and fragments of carcinomas of the lung, pancreas, and larynx were placed on CAMS of 10-day old embryos as described in Example 3A.
Additional tumor regression assays were performed with the αvβ3-reactive peptide 85189 (SEQ ID NO: 15) against 69601 as a control. The assays were performed as described above with the exception that 100 μg of peptide was intravenously injected into the CAM at 18 hours post-implantation. After 48 hours more, the tumors were then resected and wet weights were obtained.

Assay [2] deals with growth factor-induced corneal angiogenesis. In words: In vivo rabbit eye model assay. To be noted: both vFGF and VEGF stimulated eyes. An excerpt: The effect of anti-αvβ3 antagonists on growth factor-induced angiogenesis can be observed in naturally transparent structures as exemplified by the cornea of the eye. […] Stimulators of angiogenesis, such as bFGF, when applied to the cornea induce the growth of new blood vessels from the rim of the cornea. Antagonists of angiogenesis, applied to the cornea, inhibit the growth of new blood vessels from the rim of the cornea. Thus, the cornea undergoes angiogenesis through an invasion of endothelial cells from the rim of the cornea into the tough collagen-packed corneal tissue which is easily visible. The rabbit eye model assay therefore provides an in vivo model for the direct observation of stimulation and inhibition of angiogenesis following the implantation of compounds directly into the cornea of the eye.
Each experiment consisted of eight rabbits in which one eye received a pellet comprising 100 nanograms (ng) bFGF and the other eye received a pellet comprising 1 microgram (μg) VEGF. The pellets were inserted into the corneal pocket as described above, and the cytokines subsequently stimulated the growth of new blood vessels into the cornea. […] After 7 days, the cornea were evaluated as described above.

In assay [3] the test system is M21-L melanoma tumor. In words: In vivo chimeric mouse:human assay. Also on record: species or system SCID mouse. The conditions noted are these: intravenous, FIG. 18. The procedure: An in vivo chimeric mouse:human model was generated by replacing a portion of skin from a SCID mouse with human neonatal foreskin (FIG. 4). After the skin graft was established, the human foreskin was inoculated with carcinoma cells. After a measurable tumor was established, either an αvβ3 antagonist or PBS was injected into the mouse tail vein. Following a 2-3 week period, the tumor was excised and analyzed by weight and histology.
The in vivo chimeric mouse:human model is prepared essentially as described in Yan, et al., J. Clin. Invest., 91:986-996 (1993). Briefly, a 2 cm^2 square area of skin was surgically removed from a SCID mouse (6-8 weeks of age) and replaced with a human foreskin. The mouse was anesthetized and the hair removed from a 5 cm^2 area on each side of the lateral abdominal region by shaving. Two circular graft beds of 2 cm^2 were prepared by removing the full thickness of skin down to the fascia. Full thickness human skin grafts of the same size derived from human neonatal foreskin were placed onto the wound beds and sutured into place. […]
In a procedure similar to that described above for monoclonal antibodies, peptide antagonists of αvβ3 were injected intravenously into the tail vein of SCID mice having measurable M21-L tumors. […] The mean volume and weight of resected tumors following treatment were determined with the results respectively shown in FIGS. 19A and 19B.

Assay [4] has as its system tumor-induced angiogenesis. Description: CAM assay, tumor-induced angiogenesis, intravenous application. Type of assay: in vivo, chick. To be noted: intravenous injection. The procedure:
Angiogenesis was induced in the CAM assay system by direct apposition of a tumor fragment on the CAM. Preparation of the chick embryo CAM was identical to the procedure described above. Instead of a filter paper disk, a 50 milligram (mg) to 55 mg in weight fragment of one of human melanoma tumor M21-L, human lung carcinoma tumor UCLAP-3, human pancreatic carcinoma cell line FG (Cheresh et al., Cell 58:945-953, 1989), or human laryngeal carcinoma cell line HEp3, all of which are αvβ3 negative tumors, was placed on the CAM in an area originally devoid of blood vessels.
The M21-L human melanoma cell line, UCLAP-3 human lung carcinoma cell line, FG pancreatic carcinoma cell line, or HEp3 human laryngeal carcinoma cell line, all αvβ3 negative, were used to grow the solid human tumors on the CAMs of chick embryos. A single cell suspension of 8×10^6 M21-L, UCLAP-3, and FB or 5×10^5 HEp3 cells was first applied to the CAMs in a total volume of 30 μl of sterile HBSS. The windows were sealed with tape and the embryos were incubated for 7 days to allow growth of human tumor lesions. At the end of 7 days, now a 17-day embryo, the tumors were resected from the CAMs and trimmed free of surrounding CAM tissue. […]
The effects of peptide exposure to tumor-induced vasculature in the CAM assay system was also assessed. […]

[ ]: non-standard residue; d: D form.

Consider “cyclo (RADfV) (cyclo(RAD[dF]V); SMILES CC(C)[C@@H]1NC(=O)[C@@H](Cc2ccccc2)NC(=O)[C@H](CC(=O)O)NC(=O)[C@H](C)NC(=O)[C@H](CCCNC(=N)N)NC1=O) [Peptide 69601, reference compound]”, for which the “effect on tumor weight, UCLAP-3” value in assay [1] is “lack of effect”. Further, the “corneal blood vessel growth at 7 days” value in assay [2] was “substantial corneal blood vessel growth”. For the same substance, in assay [3], the tumor volume entry is given as “approximately 360 mm^3”.
On to cyclo (RGDfV) [Peptide 66203], for which the “inhibition of tumor-induced blood vessel formation” value in assay [4] was “formation of blood vessels was inhibited”.
